This note sets out measurements from patent US7341867B2, “Human preprotachykinin gene promoter” (University of Medicine & Dentistry of New Jersey, priority 1999, dated 2008).

Holding throughout (type): cell-based, human
The test system of one assay is β-PPT-I mRNA. Briefly: Quantitative RT-PCR in stimulated bone marrow stroma. The procedure:
(§1) In a second embodiment of the present invention, bone marrow stroma was stimulated in serum-free α-MEM supplemented with Insulin-transferrin-selenium-A (Life Technologies). Quantitative RT-PCR with total RNA, extracted from bone marrow stroma and construction of standard DNA was performed as described in Singh, D., supra. The end sequences of the standard DNA contained gene-specific sequences that are complementary for the reaction primers. The primers in the standard DNA flank neutral DNA. Total RNA (2 μg) was reverse transcribed and 200 ng cDNA used in PCR with specific oligonucleotide primers for PPT-I, NK-1 or NK-2. Standard DNA, log10 fold dilutions, ranged between 10^−2 to 10^−6 attomole/L. Each unknown sample was assayed with a particular concentration of standard DNA in the same reaction tube. PCR products (10 μl) were separated by electrophoresis on 1.5% agarose containing ethidium bromide and the densities of the DNA bands quantitated with a Fluorimager (Molecular Dynamics, Sunnyvale, Calif.) and then analyzed with ImageQuant software. A standard curve was established for each unknown sample: band densities of unknown/standard DNA vs. Log10 standard DNA concentration was used to determine the concentration of RNA molecules in the unknown samples. The concentration of the unknown sample was selected at the concentration in which the ratio of the unknown and standard were equivalent.
(§2) Transfected bone marrow stroma was stimulated with optimal concentrations of IL-1α (2.5 ng/ml), SCF (8 ng/ml) or 1 nM substance P, SP (Sigma, St Louis, Mo.) and/or 10 nM NK-1-specific antagonist (CP-99,994) in α-MEM with 2% FCS. In other embodiments, bone marrow stroma was stimulated with 5 μg/ml forskolin, FK (Sigma) for 2 and 5 h. SCF was purchased from R&D Systems (Minneapolis, Minn.) and IL-1α was obtained from Hoffman LaRoche, Nutley, N.J. Pfizer, Inc. (Groton, Conn.) provided CP-99,994. Substance P and CP-99,994 were dissolved and stored as described in Ramewshwar et al (1996), supra. Optimal parameters were determined with dose-response and time-course studies.
Confluent bone marrow stroma was stimulated with 25 ng/ml rhIL-1α or 10 ng/ml SCF for 24 h. Poly A RNA was isolated from total RNA by selection (2×) on oligo-dT cellulose (Life Technologies). The cellulose column was washed once with 10 mM Tris, pH 7.0; 0.5 M NaCl; […] and once with 10 mM Tris, pH 7.0; 0.2 M NaCl; […]. Poly A RNA was eluted with 10 mM Tris (pH 7.0) and […]. RNA was precipitated by standard techniques and then resuspended in DEPC-treated water. The purity was verified by the absence of rRNA.

The subject of the next assay is NK-1 mRNA. Described as above. The procedure:
as §1, §2

Another assay relates to NK-2 mRNA. The assay is described as above. To be noted: BM stroma; 8 ng/ml SCF or 2.5 ng/ml IL-1a; 16 h; serum-free α-MEM. The procedure:
as §1, §2

In assay [1] the test system is PPT-I promoter (Upstream/N0). Description: Luciferase reporter gene assay, pGL3-Upstream/N0 in transfected bone marrow stroma. The procedure: as §2
pGL3-basic with inserts of different fragments from PPT-I-p1.2 was co-transfected with pβ-gal-Control (0.5 μg each) in 80% confluent bone marrow stroma using SuperFect (Qiagen, Valencia, Calif.). After 48 h cells were scraped in 30 μl 250 mM Tris (pH 8.0) and then lysed by freezing and thawing in a dry ice/ethanol bath. Cell-free lysates (24 μl) were obtained by centrifugation at 15,000 g for 5 min at 4° C. and then diluted with 5× cell culture lysis buffer (Promega). Luciferase and β-gal activities were quantitated with 10 μl of lysates using Luciferase assay system (Promega) and Luminescent β-galactosidase detection kit II (Clontech) respectively. In the experimental model, the ratios of Luciferase/β-gal in cells transfected with vector alone ranged from 0.18 to 0.19 and was normalized to 1. Because cytokines induce the promoter upstream of β-gal, in cytokine-stimulated cells, luciferase activity was presented/mg of total protein the levels normalized with stroma transfected with vector alone. Total protein was determined using standard techniquees well known in the art.
Mutations were performed with a mutagenesis kit (Stratagene, La Jolla, Calif.). The desired mutant sequences (Table 1) were synthesized within 40 nt in the forward and reverse directions and then used in PCR with pGL3 containing wild type Upstream/N0. After PCR amplification, mutation was verified by identification of Apa L1 within CRE-like mutant and the loss of Xho 1 in CRE mutant.
In general terms: A reporter such as luciferase makes a cellular process visible.

The next assay relates to SP-IR. Briefly: ELISA of immunoreactive-SP (SP-IR) in stroma cell extracts. The procedure:
Competitive ELISA quantitated SP-IR in supernatants from breast cancer cell cultures that were 80% confluent. Cell-free supernatants were stored in siliconized tubes at −70° C. until ready to be assayed. Streptavidin, […] in distilled water, was added to Immulon 96-well plates (Dynatech Laboratories Inc., Chantilly, Va.). Streptavidin was allowed to dry at 37° C. After this, wells were blocked with 5% nonfat dry milk for 2 hr at room temperature and then washed with PBS containing 0.1% Tween-20 (PBST). Chiron Mimotopes (Emeryville, Calif.) synthesized biotinylated-SP, with spacer arm. Stock solution was diluted in 0.1% (v/v) acetic acid at 5 mg/ml, aliquoted in siliconized tubes and stored at −70° C. Working solution was diluted at 750 ng/ml with PBS containing 0.1% (w/v) BSA and 0.1% (w/v) sodium azide. Biotinylated-SP ([…]) was added to wells and plates incubated for 1 hr at room temperature. Plates were washed (×4) with PBST. Competition by the […] and soluble SP for anti-SP forms the basis for the next step. Equal volume (50 μl) of optimum rabbit anti-SP (1/15,000), and unknown or standard solution were added to wells. Plates were incubated at room temperature for 1 hr. Each unknown was assayed in triplicate as undiluted and three serial dilutions. Bound anti-SP was detected by incubating for 1 hr with optimum (150 ng/ml) AP-goat antirabbit IgG. Color was developed with Sigma 104 phosphatase substrate as described (Rameshwar, P. et al. (1996), Blood 88, 98-106). A standard curve was developed with O.D. (405 nm) versus 12 serial dilutions of standard SP that ranged from 100 to 0.08 ng/ml. […]
In the next set of experiments, we investigated the possibility for an indirect mechanism in the activation of PPT-I promoter. […] Since SCF induces endogenous PPT-I (Table 6), we used ELISA (Singh, D. et al, supra) to quantitate the level of its major translation product, immunoreactive-SP (SP-IR), in stroma cell extracts. […] To address this, we incubated the SCF-stimulated cells with 10 nM of an NK-1-specific antagonist (CP-99,994) and then quantitated luciferase activity. […]

Setting [2] is: BM stroma, 8 ng/ml SCF or 2.5 ng/ml IL-1a, 16 h, serum-free α-MEM.
[3] abbreviates: stroma stimulated with SCF, five experiments.

Turning to “SCF: stem cell factor, cytokine purchased from R&D Systems”, the “β-PPT-I (molecules/μg total RNA)” value in the assay with β-PPT-I mRNA (BM stroma, 1 nM SP, 8 ng/ml SCF and/or 10 nM CP-99,994, 16 h) was determined as 1324 ± 76 molecules/μg total RNA. Further, in the assay with β-PPT-I mRNA (setting [2]), the “β-PPT-I mRNA” value is 1336 ± 134 Molecules/μg total RNA. The “molecules of β-PPT-I/μg poly A” value in the assay on β-PPT-I mRNA (poly A RNA from stroma stimulated with 25 ng/ml rhIL-1α or 10 ng/ml SCF for 24 h, n=6) is given as 134,340±545 molecules of β-PPT-I/μg poly A. In addition, the “NK-1 mRNA” value in the assay on NK-1 mRNA (setting [2]) is 5253 ± 170 Molecules/μg total RNA. In addition, in the assay on NK-1 mRNA (optimal SCF for 36 h), the NK-1 induced is listed as 5052±50 molecules/μg total RNA. Besides, the “NK-2 mRNA” value with NK-2 mRNA was 273 ± 19 Molecules/μg total RNA. For the same substance, the “increase in luciferase activities compared to unstimulated cells” value in assay [1] (pGL3-Upstream/N0 wild type, optimal SCF or IL-1a, 10 h) is on record as 4 fold. Further, in assay [1] (pGL3-Upstream/N0 with mutant CRE and CRE-like), the “induction of luciferase in cells transfected with the double mutants” value is “no significant induction”. Moreover, the “SP-IR in stromal extracts” value in the assay with SP-IR (SCF-stimulated, after 36 h, n=5, ±SD) was 115 ± 8 pg/mL. For the same substance, in the assay with SP-IR (setting [3]), the “SP-IR at 4 h post-transfection” value came out at 122 ± 14 pg/mL and the “SP-IR at time 0 post-transfection” value was 110 ± 18 pg/mL.
